A word on the half-life: it is the time in which the quantity being followed falls by half. A high value points to slow decline. For orientation: pIC50 means the negative decadic logarithm of the IC50, by convention in mol/L. Broadly, the logD is lipophilicity at a set pH, counting ionised and neutral species. A high value points to a more lipophilic compound.

Data set [1] is described as follows: Half life in rat microsomes. In kind it is ADME, Microsome.
The nature of data set [2]: Half life in dog microsomes. In kind it is ADME, Canis lupus familiaris, Microsome.
Data set [3] addresses T1, Sodium channel protein type 5 subunit alpha (Homo sapiens, UniProt Q14524). The data set can be described thus: Inhibition of 0.1 Hz stimulated human Nav1.5alpha expressed in HEK293 cells assessed as inhibition of late sodium current with 3 compound additions for 7 to 8 mins at holding potential -120 mV in presence of late sodium current activator tefluthrin/ATX2 measured immediately after third compound addition by PatchXpress method. The format is cell-based.

Data set [4] deals with Sodium channel protein type 1 subunit alpha (Homo sapiens, UniProt P35498). The data set can be described thus: Inhibition of 10 Hz stimulated Nav1.1 (unknown origin) assessed as inhibition of peak sodium current at 10 uM by automated patch clamp method relative to control. On the technique in general: In patch-clamp work, channel activity is measured electrically.
For data set [5], the target named is T1, Sodium channel protein type 5 subunit alpha. Particulars: HEK293, human, read-out: INH.
Description: Inhibition of 0.1 Hz stimulated human Nav1.5alpha expressed in HEK293 cells assessed as inhibition of late sodium current at 10 uM with 3 compound additions for 7 to 8 mins at holding potential -120 mV in presence of late sodium current activator tefluthrin/ATX2 measured immediately after third compound addition by PatchXpress method relative to control
For data set [6], the target named is T2, Nav1.5 (peak sodium current, use-dependent block) (Homo sapiens, UniProt Q14524). The data set can be described thus: Inhibition of 3 Hz stimulated human Nav1.5alpha expressed in HEK293 cells assessed as use dependent block of peak sodium current at 10 uM with 3 compound additions at 60 sec intervals at holding potential -100 mV incubated for 320 sec after third compound addition followed by second period of 3 Hz stimulation by PatchXpress method relative to control. Particulars: HEK293 cells expressing human Nav1.5alpha. In kind it is cell-based.
T2 sequence (Q14524 whole entry): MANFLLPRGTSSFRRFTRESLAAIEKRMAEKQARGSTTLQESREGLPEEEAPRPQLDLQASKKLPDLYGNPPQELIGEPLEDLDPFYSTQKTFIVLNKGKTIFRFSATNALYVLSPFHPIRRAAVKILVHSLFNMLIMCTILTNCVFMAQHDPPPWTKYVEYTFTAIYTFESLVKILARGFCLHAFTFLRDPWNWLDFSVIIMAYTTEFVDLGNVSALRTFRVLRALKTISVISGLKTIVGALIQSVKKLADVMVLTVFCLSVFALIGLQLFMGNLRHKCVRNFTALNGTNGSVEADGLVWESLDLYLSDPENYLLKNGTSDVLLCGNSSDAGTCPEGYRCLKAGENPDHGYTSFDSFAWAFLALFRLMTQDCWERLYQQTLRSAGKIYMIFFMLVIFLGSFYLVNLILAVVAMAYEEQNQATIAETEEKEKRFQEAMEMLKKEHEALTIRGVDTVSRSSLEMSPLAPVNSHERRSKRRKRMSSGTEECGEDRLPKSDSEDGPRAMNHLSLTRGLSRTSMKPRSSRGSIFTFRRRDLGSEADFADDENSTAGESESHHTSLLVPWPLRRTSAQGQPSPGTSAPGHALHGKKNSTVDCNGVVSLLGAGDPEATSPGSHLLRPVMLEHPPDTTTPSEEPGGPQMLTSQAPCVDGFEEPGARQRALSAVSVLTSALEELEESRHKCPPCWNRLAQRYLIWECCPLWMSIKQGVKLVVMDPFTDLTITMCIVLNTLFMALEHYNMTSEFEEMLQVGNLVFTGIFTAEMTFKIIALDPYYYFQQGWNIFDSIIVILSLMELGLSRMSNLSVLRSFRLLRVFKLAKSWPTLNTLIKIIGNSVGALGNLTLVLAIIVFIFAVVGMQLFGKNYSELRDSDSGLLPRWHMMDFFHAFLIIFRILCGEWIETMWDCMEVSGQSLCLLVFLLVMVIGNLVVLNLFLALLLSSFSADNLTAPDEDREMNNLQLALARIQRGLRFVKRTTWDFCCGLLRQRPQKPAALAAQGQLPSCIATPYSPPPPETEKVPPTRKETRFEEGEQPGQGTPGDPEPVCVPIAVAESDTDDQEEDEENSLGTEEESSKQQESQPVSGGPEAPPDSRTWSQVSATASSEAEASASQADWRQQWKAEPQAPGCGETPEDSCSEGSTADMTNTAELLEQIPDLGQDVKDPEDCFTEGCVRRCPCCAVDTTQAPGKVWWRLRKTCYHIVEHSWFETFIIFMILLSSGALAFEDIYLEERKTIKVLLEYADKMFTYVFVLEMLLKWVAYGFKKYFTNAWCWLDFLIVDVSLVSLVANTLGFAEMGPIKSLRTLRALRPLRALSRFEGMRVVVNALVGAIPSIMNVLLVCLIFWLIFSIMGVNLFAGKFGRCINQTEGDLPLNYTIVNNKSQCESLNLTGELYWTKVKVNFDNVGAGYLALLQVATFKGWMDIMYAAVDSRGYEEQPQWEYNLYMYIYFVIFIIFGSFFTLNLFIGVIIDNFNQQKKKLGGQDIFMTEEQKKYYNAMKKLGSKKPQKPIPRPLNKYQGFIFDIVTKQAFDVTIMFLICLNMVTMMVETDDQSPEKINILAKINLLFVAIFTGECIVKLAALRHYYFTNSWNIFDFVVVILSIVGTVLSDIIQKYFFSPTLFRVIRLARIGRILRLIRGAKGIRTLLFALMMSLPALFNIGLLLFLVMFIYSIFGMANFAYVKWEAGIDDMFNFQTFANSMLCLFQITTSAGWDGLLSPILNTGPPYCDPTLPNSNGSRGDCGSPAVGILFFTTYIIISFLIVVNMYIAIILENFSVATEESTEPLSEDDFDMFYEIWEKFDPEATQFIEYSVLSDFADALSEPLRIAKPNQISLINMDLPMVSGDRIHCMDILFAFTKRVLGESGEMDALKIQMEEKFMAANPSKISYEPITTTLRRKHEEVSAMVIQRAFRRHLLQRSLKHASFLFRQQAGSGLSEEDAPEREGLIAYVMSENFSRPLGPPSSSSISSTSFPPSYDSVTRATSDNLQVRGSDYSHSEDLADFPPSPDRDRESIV

Data set [7] in a line: Half life in human microsomes. In kind it is ADME, Microsome.
Data set [8] is described as follows: Lipophilicity, log D of compound. The format is physicochemical. Particulars: octanol/water.
The target in data set [9] is T2, Nav1.5 (peak sodium current, use-dependent block). The data set can be described thus: Inhibition of 3 Hz stimulated human Nav1.5alpha expressed in HEK293 cells assessed as use dependent block of peak sodium current at 1 uM with 3 compound additions at 60 sec intervals at holding potential -100 mV incubated for 320 sec after third compound addition followed by second period of 3 Hz stimulation by PatchXpress method relative to control. Particulars: HEK293 cells expressing human Nav1.5alpha. In kind it is cell-based.

In a further data set the test system is Heart. The data set can be described thus: Protection against […]/clofilium-induced ventricular arrhythmias in isolated rabbit heart assessed as torsade des pointes at 14 uM relative to control. In kind it is functional, Oryctolagus cuniculus, Cardiac ventricle.
The species named for another data set is Oryctolagus cuniculus. Description: Inhibition of Nav1.5 in isolated rabbit heart assessed as inhibition of ATX2-induced prolongation of mean action potential duration at 10 to 100000 nM relative to control.

pIC50: −log10 of the molar value.

T1 sequence (Q14524 whole entry): as above

With `O=c1n(Cc2noc(CO)n2)nc2ccc(-c3ccc(Oc4ccc(F)cc4)cc3)cn12`, the half-life is 0.533 h in [1], 3.02 h in data set [2] and 1.35 h in [7]. In data set [3], the pIC50 was 3.01. In addition, the inhibition in data set [4] stood at 56%. Also, the inhibition at 10 µM in data set [5] is ≥ 70%. Further, the inhibition at 320 s, 10 µM in data set [6] amounted to 21%. The pH-dependent lipophilicity (logD) in data set [8] was 2.8.

Regarding `O=c1n(Cc2nnc(C3CC3)o2)nc2ccc(-c3ccc(Oc4ccc(F)cc4)cc3)cn12`, the half-life in data set [1] was 6.58 h; in data set [2], 4.78 h; in [7] it was 6.58 h. In addition, the inhibition at 320 s, 1 µM in [9] worked out at 69%. In addition, the pIC50 in [3] is 3.13. For the same compound, in [4], the inhibition was found to be 56%. Also, in data set [5], the inhibition at 10 µM was ≥ 70%.

As to `O=c1[nH]nc2ccc(-c3ccc(OC(F)(F)F)cc3)cn12`, the half-life in data set [1] worked out at 1.48 h; in [2], 3.17 h; in data set [7], 6.5 h. Besides, the pIC50 in data set [3] was 5.72. Also, in data set [5], the inhibition at 10 µM is ≥ 70%. Moreover, the inhibition at 320 s, 10 µM in [6] amounted to 24%.

As to `O=c1n(Cc2nc(-c3c(Cl)cccc3Cl)no2)nc2ccc(-c3ccc(OC(F)(F)F)cc3)cn12`, the pIC50 in data set [3] was 5.46. The inhibition at 10 µM in data set [5] is ≥ 70%.

For `Cn1cnc(Cn2nc3ccc(-c4ccc(OC(F)(F)F)cc4)cn3c2=O)n1`, in [3], the pIC50 was < 5.00.

Take `COc1ccccc1OCC(O)CN1CCN(CC(=O)Nc2c(C)cccc2C)CC1` (stereo unspecified) [RANOLAZINE]: the Activity in the data set with Heart was determined as 40%. Also, in the data set filed under Oryctolagus cuniculus, the inhibition came to 60%.

As to `Cc1nc(Cn2nc3ccc(-c4ccc(OC(F)(F)F)cc4)cn3c2=O)no1`, the values for the half-life in data set [1] and in data set [7] were 6.05 h and 6.58 h, respectively. In addition, the pIC50 in data set [3] is 5.48. The inhibition in data set [4] came to 27%. For the same compound, the inhibition at 10 µM in data set [5] is ≥ 70%. Besides, the inhibition at 320 s, 10 µM in data set [6] was 10%.

Turning to `Cc1noc(Cn2nc3ccc(-c4ccc(Oc5ccc(Cl)cc5)cc4)cn3c2=O)n1`, the half-life amounted to 0.567 h in data set [1], 1.57 h in data set [2] and 0.75 h in data set [7]. Moreover, in data set [9], the inhibition at 320 s, 1 µM was determined as 47%. Further, in data set [3], the negative logarithm of the IC50 (pIC50) was 3.87. Also, the inhibition in [4] was found to be 42%. Moreover, in data set [5], the inhibition at 10 µM is ≥ 70%. Also, the log distribution coefficient (logD) in data set [8] came to 3.4.

Consider `Cc1coc(Cn2nc3ccc(-c4ccc(OC(F)(F)F)cc4)cn3c2=O)n1`, for which the half-life in [1] is 0.683 h; in data set [2] it was 2.67 h; in [7], 2.4 h. The pIC50 in [3] is 5.60. In [4], the inhibition came to 28%. Also, in data set [5], the inhibition at 10 µM was ≥ 70%.

The record behind these values is ChEMBL document CHEMBL3808373 (Bioorg Med Chem Lett, 2016).
